Test systems include DU-145 prostate; HCT-116 colon; SK-MEL-28 melanoma; SN12C renal; SNB-19 CNS; TK-10 renal; U251 CNS; UACC-62 melanoma; UO-31 renal; OVCAR-4 ovarian.
Common to all, as to assay: NCI-60 cell line screen, 48 h

The structures appear in SMILES notation. Several values for one entry are separate records, joined by “and”; a condition that tells them apart may be missing. Equal values may be shown once.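 Exposure lasted 48 hours, with cells grown in 96-well plates and compounds tested at five concentrations. The concentration for 50% growth inhibition is given as GI50. TGI is the concentration that stops growth completely.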

Turning to `C=CCCC(O)c1ccc(CCCCCCCCCCC)o1` (centres undefined), the GI50 in the experiment with DU-145 prostate is 16.4 µM; in the experiment with HCT-116 colon, 18 µM; in the experiment on SK-MEL-28 melanoma, 14.9 µM; in the experiment with SN12C renal, 15.6 µM; in the experiment with SNB-19 CNS, 18.8 µM; in the experiment on TK-10 renal, 15.8 µM. The GI50 with U251 CNS is 17.5 µM; with UACC-62 melanoma it was 12.3 µM; in the experiment on UO-31 renal it was 20.9 µM. For the same molecule, the TGI in the experiment on DU-145 prostate is 31.1 µM; in the experiment on HCT-116 colon, 32.2 µM; in the experiment on SK-MEL-28 melanoma it was 29.6 µM; in the experiment on SN12C renal, 29 µM; with SNB-19 CNS, 35 µM; in the experiment with TK-10 renal it was 31.9 µM. The TGI is 31.5 µM in the experiment with U251 CNS, 25 µM with UACC-62 melanoma and 36.1 µM in the experiment with UO-31 renal.
Consider `O=C1C(Cl)=C(Nc2ccccn2)C(=O)c2ccccc21`, for which the GI50 is 1.94 µM with DU-145 prostate; 1.95 µM in the experiment on HCT-116 colon; 2.09 µM with SK-MEL-28 melanoma; 2.33 µM in the experiment with SN12C renal; 4.53 µM with SNB-19 CNS; 12.9 µM in the experiment with TK-10 renal. Further, the GI50 in the experiment on U251 CNS was 3.24 µM; in the experiment with UACC-62 melanoma it was 2.1 µM; with UO-31 renal it was 2.27 µM. The TGI in the experiment with DU-145 prostate was determined as 3.39 µM; in the experiment on HCT-116 colon it was 4.1 µM; with SK-MEL-28 melanoma, 3.92 µM; in the experiment on SN12C renal it was 5.17 µM; in the experiment on SNB-19 CNS it was 16.3 µM; in the experiment on TK-10 renal it was 25.5 µM. Also, the TGI is 11 µM with U251 CNS, 3.95 µM in the experiment with UACC-62 melanoma and 7.2 µM in the experiment on UO-31 renal.
As to `C/C=C1\C[C@@H]2C(OC)Nc3cc(O)c(OC)cc3C(=O)N2C1` (some centres undefined), the GI50 with DU-145 prostate is 0.00348 µM; with HCT-116 colon, 0.0172 µM; in the experiment with OVCAR-4 ovarian it was 0.00355 µM; with SN12C renal, 0.00625 µM; with U251 CNS it was 0.00353 µM; in the experiment with UACC-62 melanoma, 0.00284 µM. For the same molecule, the GI50 in the experiment with UO-31 renal is 0.00222 µM. The TGI is 0.0248 µM and 0.21 µM with DU-145 prostate; < 0.0172 µM and 0.0101 µM in the experiment on OVCAR-4 ovarian; 0.0295 µM and 0.0176 µM with SK-MEL-28 melanoma; 10.1 µM in the experiment with U251 CNS; 0.00948 µM with UACC-62 melanoma.
Take `Cc1cc2c(=O)c3ccccc3oc2c(C#N)c1C`: the TGI in the experiment with DU-145 prostate, in the experiment with HCT-116 colon, in the experiment on OVCAR-4 ovarian, in the experiment on SK-MEL-28 melanoma, in the experiment on SNB-19 CNS and in the experiment with TK-10 renal was over 100 µM each time. Also, the TGI in the experiment on U251 CNS and in the experiment on UO-31 renal was over 100 µM in each case.
Turning to `CC(=O)Nc1ccc(S(=O)(=O)c2ccc(NC(C)=O)cc2)cc1`, the GI50 in the experiment with DU-145 prostate, in the experiment on HCT-116 colon, in the experiment with OVCAR-4 ovarian, in the experiment on SK-MEL-28 melanoma, with SN12C renal and in the experiment on TK-10 renal was over 100 µM in each case. Besides, the GI50 in the experiment on UACC-62 melanoma and with UO-31 renal was over 100 µM each time. Moreover, the TGI with DU-145 prostate, in the experiment with HCT-116 colon, in the experiment on OVCAR-4 ovarian, in the experiment with SK-MEL-28 melanoma, with SN12C renal and in the experiment with TK-10 renal was over 100 µM in each case. Also, the TGI with UACC-62 melanoma and in the experiment on UO-31 renal was over 100 µM throughout.
Take `COc1ccc(OC)c(-c2cc(C(=O)O)c3cc4ccccc4cc3n2)c1`: the TGI with DU-145 prostate, in the experiment with HCT-116 colon, with OVCAR-4 ovarian, with SK-MEL-28 melanoma, in the experiment with SN12C renal and in the experiment with SNB-19 CNS was over 100 µM in each case. Besides, the TGI with TK-10 renal, in the experiment with U251 CNS and in the experiment on UACC-62 melanoma was over 100 µM throughout.
For the molecule `CS(=O)(=O)N(CC(=O)O)Cc1ccccc1`, the TGI with DU-145 prostate, with HCT-116 colon, in the experiment with OVCAR-4 ovarian, in the experiment with SK-MEL-28 melanoma, in the experiment with SN12C renal and with SNB-19 CNS was over 100 µM each time. The TGI in the experiment on TK-10 renal, with U251 CNS and in the experiment on UACC-62 melanoma was over 100 µM throughout.
On to `Cc1nn(-c2ccccc2)c(C)c1/C=N/N1CCN(Cc2ccccc2)CC1`, for which the GI50 in the experiment with DU-145 prostate was 96.4 µM; with HCT-116 colon, 28 µM; in the experiment with SK-MEL-28 melanoma it was 80.5 µM; in the experiment on SN12C renal, over 100 µM; in the experiment on SNB-19 CNS, over 100 µM; with TK-10 renal, 28.7 µM. Also, the GI50 in the experiment on U251 CNS was 67.5 µM; in the experiment on UACC-62 melanoma it was 33.8 µM; in the experiment on UO-31 renal, 66.4 µM. The TGI with DU-145 prostate, in the experiment with HCT-116 colon, with SK-MEL-28 melanoma, in the experiment with SN12C renal, in the experiment on SNB-19 CNS and with TK-10 renal was over 100 µM in each case. The TGI with U251 CNS, with UACC-62 melanoma and in the experiment on UO-31 renal was over 100 µM throughout.
For `CN1CCN(CCCOc2ccc3nc(Nc4ccc(C(F)(F)F)c(Cl)c4)ccc3c2)CC1`, the GI50 with DU-145 prostate is 1.58 µM; in the experiment with HCT-116 colon, 1.46 µM; in the experiment with OVCAR-4 ovarian, 1.71 µM; in the experiment with SK-MEL-28 melanoma, 1.88 µM; in the experiment with SNB-19 CNS, 1.74 µM; with TK-10 renal, 1.8 µM. Also, the GI50 with U251 CNS is 1.46 µM; with UACC-62 melanoma, 1.83 µM; in the experiment on UO-31 renal, 1.72 µM. The TGI is 3.09 µM with DU-145 prostate; 2.94 µM with HCT-116 colon; 4.59 µM in the experiment on OVCAR-4 ovarian; 3.89 µM with SK-MEL-28 melanoma; 3.6 µM in the experiment with SNB-19 CNS; 3.51 µM with TK-10 renal. Also, the TGI in the experiment with U251 CNS was 2.98 µM; with UACC-62 melanoma, 3.88 µM; with UO-31 renal, 3.68 µM.
On to `COc1cc(CCNc2nc3cc(N)cc(N)c3nc2-c2ccccc2)cc(OC)c1`, for which the GI50 with DU-145 prostate was 5.48 µM; in the experiment with OVCAR-4 ovarian, 1.21 µM; in the experiment on SK-MEL-28 melanoma it was 1.63 µM; in the experiment with SN12C renal, 1.67 µM; with SNB-19 CNS it was 5.92 µM; in the experiment with TK-10 renal, 3.49 µM. The GI50 is 1.67 µM with U251 CNS, 1.81 µM in the experiment with UACC-62 melanoma and 1.94 µM with UO-31 renal. Besides, the TGI in the experiment on DU-145 prostate was found to be 17.8 µM; in the experiment with OVCAR-4 ovarian, 2.54 µM; in the experiment on SK-MEL-28 melanoma, 3.31 µM; in the experiment on SN12C renal, 3.12 µM; in the experiment on SNB-19 CNS it was 18.6 µM; with TK-10 renal, 12.1 µM. Besides, the TGI in the experiment with U251 CNS came out at 3.11 µM; in the experiment on UACC-62 melanoma, 3.36 µM; in the experiment on UO-31 renal it was 3.78 µM.
Turning to `CCc1cccc(CC)c1NC(=O)c1ccn2c1CCc1cnc(Nc3ccc(N4CCN(C)CC4)cc3OC)nc1-2`, the GI50 with DU-145 prostate is 2.6 µM; in the experiment on OVCAR-4 ovarian, 3.77 µM; with SK-MEL-28 melanoma, 1.76 µM; with SN12C renal, 2.13 µM; in the experiment on SNB-19 CNS it was 3.57 µM; in the experiment on TK-10 renal it was 2.93 µM. In addition, the results for the GI50 with U251 CNS, in the experiment on UACC-62 melanoma and in the experiment on UO-31 renal were 1.84 µM, 2.08 µM and 1.55 µM, respectively. Also, the TGI is 15.8 µM in the experiment on DU-145 prostate; 18.1 µM in the experiment on OVCAR-4 ovarian; 3.55 µM in the experiment with SK-MEL-28 melanoma; 13.9 µM with SN12C renal; 15.2 µM with SNB-19 CNS; 16.2 µM in the experiment with TK-10 renal. Also, the TGI in the experiment on U251 CNS is 5.99 µM; in the experiment with UACC-62 melanoma it was 4.52 µM; in the experiment on UO-31 renal it was 7.74 µM.
With `O=C(OC(CNc1c(C(=O)c2ccccc2)c(=O)n(Cc2ccccc2)c(=O)n1Cc1ccccc1)CN1CCCCC1)c1ccccc1` (centres undefined), the GI50 was 29.3 µM in the experiment with DU-145 prostate; 14.9 µM in the experiment with HCT-116 colon; 19.3 µM in the experiment on SN12C renal; 30.4 µM in the experiment with SNB-19 CNS; 23.6 µM in the experiment with TK-10 renal; 15.2 µM with U251 CNS. In addition, the GI50 with UACC-62 melanoma was 20.7 µM; with UO-31 renal it was 16.7 µM. Further, the TGI is 80.9 µM in the experiment on DU-145 prostate; 28.1 µM in the experiment on HCT-116 colon; 36.9 µM in the experiment with SN12C renal; 83.5 µM in the experiment with SNB-19 CNS; 71.6 µM with TK-10 renal; 29 µM in the experiment with U251 CNS. Moreover, the TGI with UACC-62 melanoma is 42.4 µM; in the experiment with UO-31 renal, 36 µM.
`N=C(N)c1ccc(-c2ccc(-c3ccc(Cl)c(Cl)c3)o2)nc1`: the GI50 is 1.89 µM in the experiment with DU-145 prostate; 1.76 µM with SK-MEL-28 melanoma; 1.74 µM with SN12C renal; 1.84 µM in the experiment with SNB-19 CNS; 2.03 µM in the experiment on TK-10 renal; 1.5 µM in the experiment on UO-31 renal. The TGI was 3.62 µM in the experiment on DU-145 prostate; 3.34 µM in the experiment with SK-MEL-28 melanoma; 3.52 µM in the experiment with SN12C renal; 3.7 µM in the experiment with SNB-19 CNS; 3.77 µM with TK-10 renal; 2.97 µM in the experiment with UO-31 renal.
As for `O=c1[nH]c(=O)n(C2OC(CO)C(O)C2O)cc1OCc1ccccc1` (centres undefined), the TGI is over 83.2 µM in the experiment on HCT-116 colon; over 100 µM in the experiment with OVCAR-4 ovarian; over 100 µM with SK-MEL-28 melanoma; over 100 µM with SN12C renal; over 100 µM in the experiment with SNB-19 CNS; over 100 µM in the experiment with TK-10 renal. The TGI with U251 CNS is over 72.2 µM; in the experiment on UACC-62 melanoma, over 100 µM; in the experiment with UO-31 renal, over 100 µM.

Source of the values: PubChem BioAssay (NCI).
